Experimental data taken from US4358458A, “Tertiary imidazolyl alcohols and method for the treatment of generalized and local infections caused by fungi and yeasts” (Nordmark-Werke GmbH, priority 1976, dated 1982).

Assays:
Candida albicans [1] = assay: oral activity in Candida-infected mice (survival); type: in vivo; details: 100 mg/kg orally twice a day for 7 days; for Number of Animals surviving on day 1 after infection / Number of Animals surviving on day 2 after infection / Number of Animals surviving on day 3 after infection / Number of Animals surviving on day 4 after infection / Number of Animals surviving on day 5 after infection / Number of Animals surviving on day 6 after infection / Number of Animals surviving on day 7 after infection: groups of 10 mice
Description: In order to determine oral activity, groups of 10 mice weighing approximately 20 g were pretreated for 2 days with intramuscular doses of 50 mg/kg of hydrocortisone in order to obtain firm rooting of the infection. The mice were then each infected intravenously with 500,000 Candida albicans germs and subsequently treated orally twice a day for 7 days with 100 mg/kg of the substance to be tested. In addition to an infected, but untreated control group, another group was treated for comparison with the comparison substance MICONAZOL.

LD50 (mice) = details: mouse, in vivo
Candida albicans [2] = assay: series dilution test in vitro, Candida albicans; type: cell-based; details: dilution b=1:100,000
Description: The antimicrobial activity of the compounds corresponding to general formula (I) in vitro was tested in a series dilution test with dilution ratios of from 1:10,000 to 1:200,000 against the germs Staphylococcus aureus, Trichophyton mentagrophytes and Candida albicans.
The results were evaluated by the following graduations of the growth inhibition level:
.phi.=complete inhibition
The following dilution ratios were selected as the dilution ratio V: […]

SMILES	Number of Animals surviving on day 1 after infection (Candida albicans [1])	Number of Animals surviving on day 2 after infection (Candida albicans [1])	Number of Animals surviving on day 3 after infection (Candida albicans [1])	Number of Animals surviving on day 4 after infection (Candida albicans [1])	Number of Animals surviving on day 5 after infection (Candida albicans [1])	Number of Animals surviving on day 6 after infection (Candida albicans [1])	Number of Animals surviving on day 7 after infection (Candida albicans [1])	animals still alive on the last day of the treatment (Candida albicans [1]; last day of treatment) [%]	LD50 (LD50 (mice)) [mg/kg]	growth inhibition level, Candida albicans (Candida albicans [2])
OC(Cc1ccc(Cl)cc1Cl)(Cn1ccnc1)c1ccccc1 (stereo not drawn) [Example 34, 1-(2,4-dichlorophenyl)-2-phenyl-3-(imidazol-1-yl)-propan-2-ol nitrate]	10	10	10	10	10	10	9	–	–	–
Clc1ccc(COC(Cn2ccnc2)c2ccc(Cl)cc2Cl)c(Cl)c1.O=[N+]([O-])O (stereo not drawn) [MICONAZOL, 1-[2,4-dichloro-β-(2,4-dichlorobenzyloxy)-phenethyl]imidazole nitrate, reference compound]	10	10	8	8	6	4	2	20	–	–
OC(Cc1ccc(Cl)cc1)(Cn1ccnc1)c1ccc(Cl)cc1 (stereo not drawn) [Example 8, 1,2-bis-(4-chlorophenyl)-3-(imidazol-1-yl)-propan-2-ol nitrate]	10	10	10	10	10	10	10	–	1000	–
Cl.OC(Cc1ccc(Cl)cc1)(Cn1ccnc1)c1ccc(Cl)cc1Cl (stereo not drawn) [Example 30, 1-(4-chlorophenyl)-2-(2,4-dichlorophenyl)-3-(imidazol-1-yl)-propan-2-ol hy drochloride]	10	10	10	10	10	10	10	–	1000	–
OC(Cc1ccccc1)(Cn1ccnc1)c1ccc(Cl)cc1 (stereo not drawn) [Example 15, 1-phenyl-2-(4-chlorophenyl)-3-(imidazol-1-yl)-propan-2-ol nitrate]	10	10	10	10	10	10	9	–	–	–
OC(Cc1ccc(Cl)cc1Cl)(Cn1ccnc1)c1ccc(Cl)cc1Cl (stereo not drawn) [Example 9, 1,2-bis-(2,4-dichlorophenyl)-3-(imidazol-1-yl)-propan-2-ol-nitrate]	10	10	10	10	10	10	9	–	1000	–
OC(Cc1ccc(Cl)cc1)(Cn1ccnc1)c1ccccc1 (stereo not drawn) [Example 28, 1-(4-chlorophenyl)-2-phenyl-3-(imidazol-1-yl)-propan-2-ol nitrate]	10	10	10	10	10	10	10	–	–	+ ++
